Experimental data from patent US20130090317A1 (priority 2011, published 2013).
Like-named read-outs stand apart in the source and are kept apart here.

Tests used:
rats suffering from TBI = details: moderate to severe TBI, 16 mg/kg, 72 hours post-injury, p<0.05 (FIG. 1); cited from earlier work
[1] = tested on: moderate to severe TBI patients; details: cited from earlier work
[2] = tested on: rats that have suffered a concussion (mTBI); assay: Morris Water Maze latency to platform in mTBI (concussion) model; format: in vivo, rat; details: versus vehicle-injured rats (FIG. 8)
severe TBI patients = details: six months; cited from earlier work
glutathione reductase = details: 72 hours post-injury, p<0.01 (FIG. 2); cited from earlier work
[3] = biological target: T1, classical progesterone receptor (PR) (Homo sapiens, UniProt P06401); details: cited from earlier work
T1 sequence (P06401 1-933): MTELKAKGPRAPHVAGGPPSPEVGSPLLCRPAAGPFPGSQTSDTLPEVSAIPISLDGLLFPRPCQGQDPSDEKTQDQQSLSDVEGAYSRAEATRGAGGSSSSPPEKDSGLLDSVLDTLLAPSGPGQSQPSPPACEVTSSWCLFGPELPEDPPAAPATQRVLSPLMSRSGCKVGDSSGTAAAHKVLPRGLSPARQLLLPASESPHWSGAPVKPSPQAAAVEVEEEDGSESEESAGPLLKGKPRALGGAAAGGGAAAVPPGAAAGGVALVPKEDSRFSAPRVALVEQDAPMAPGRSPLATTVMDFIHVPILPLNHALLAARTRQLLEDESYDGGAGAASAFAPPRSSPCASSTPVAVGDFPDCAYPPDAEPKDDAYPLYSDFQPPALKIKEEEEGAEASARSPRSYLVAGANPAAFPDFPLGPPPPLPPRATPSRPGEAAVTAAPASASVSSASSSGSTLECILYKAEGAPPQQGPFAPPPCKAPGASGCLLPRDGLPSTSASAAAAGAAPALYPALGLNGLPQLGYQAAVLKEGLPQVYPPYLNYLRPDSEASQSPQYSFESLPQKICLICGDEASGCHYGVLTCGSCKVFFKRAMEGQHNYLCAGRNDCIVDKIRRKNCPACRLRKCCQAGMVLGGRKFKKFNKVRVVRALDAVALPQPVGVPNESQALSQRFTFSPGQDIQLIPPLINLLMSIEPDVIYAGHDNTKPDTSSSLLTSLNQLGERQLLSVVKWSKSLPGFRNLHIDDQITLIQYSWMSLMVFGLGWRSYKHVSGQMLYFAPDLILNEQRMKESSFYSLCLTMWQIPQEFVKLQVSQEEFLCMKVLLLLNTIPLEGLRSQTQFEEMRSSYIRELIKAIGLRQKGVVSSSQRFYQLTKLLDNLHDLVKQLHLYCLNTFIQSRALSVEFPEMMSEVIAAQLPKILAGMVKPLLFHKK

| Structure (SMILES) | brain water content (measure of edema) (rats suffering from TBI) | 30 days post-injury outcomes (Glasgow Outcome Scale-Extended, Disability Rating Scale) ([1]; moderate TBI patients) | 30 days post-injury outcomes (Glasgow Outcome Scale-Extended, Disability Rating Scale) ([1]; patients with severe brain injuries) | latency to platform, Morris Water Maze ([2]; Prog administered post-acutely (15 minutes post)) | latency to platform, Morris Water Maze ([2]; Prog administered prophylactically (15 minutes prior)) | neurological outcomes long-term (severe TBI patients) | anti-oxidant activity of glutathione reductase (glutathione reductase) | activation of the classical progesterone receptor (PR) [3] |
| --- | --- | --- | --- | --- | --- | --- | --- | --- |
| CC(=O)[C@H]1CC[C@H]2[C@@H]3CC[C@H]4C[C@H](O)CC[C@]4(C)[C@H]3CC[C@]12C [ALLO, allopregnanolone] | normalizes brain water content |  |  |  |  |  |  |  |
| CC(=O)[C@H]1CC[C@H]2[C@@H]3CCC4=CC(=O)CC[C@]4(C)[C@H]3CC[C@]12C [Prog, progesterone] | normalizes brain water content | better outcomes | little measurable difference | decreases latency to platform | decreases latency to platform | better neurological outcomes long-term |  |  |
| CC(=O)[C@@H]1CC[C@@H]2[C@H]3CCC4=CC(=O)CC[C@@]4(C)[C@@H]3CC[C@]21C [ent-Prog, ent-progesterone] | normalizes brain water content |  |  |  |  |  | significantly increases the anti-oxidant activity of glutathione reductase compared to all other groups | does not activate the classical progesterone receptor (PR) |
